Test results as given in US11155576B2, “Synthetic peptides, enzymatic formation of pericellular hydrogels/nanofibrils, and methods of use” (BRANDEIS UNIVERSITY, priority 2014, dated 2021).

Key:
MES-SA/dx5 cells = test: Pericellular hydrogel/nanonets on MES-SA/dx5 cells (Congo red/DAPI); type: cell-based, human; conditions: 280 μM, 12 hours
Description: FIG. 11 illustrates overlaid and 3D stacked z-scan images of Congo red and DAPI stained MES-SA and MES-SA/Dx5 cells treated with either 280 μM D-2a (upper panel) or medium alone (control, lower panel) for 12 hours. Scale bar=[…]. White dots outline the cells.
(§1) Cells in exponential growth phase were seeded in a glass bottomed culture chamber at 2×10^4 cells/well. Cells were allowed to attach for 24 hours at 37° C., 5% CO2. The culture medium was removed, and replaced with culture medium containing D-2a at 280 μM. Following 12 hours of incubation, cells were washed 3 times with PBS prior to being stained with 0.1 mg/mL Congo red and 0.6 μM DAPI in PBS buffer (30 minutes at 37° C. in the dark). Next, cells were rinsed three times with PBS, and then kept in PBS for imaging.

[1] = Cell viability assay (MTT), HeLa; type: cell-based, human; conditions: human, HeLa cells, 48 hour incubation
Description: Cells in exponential growth phase were seeded in a 96 well plate at a concentration of 2×10^4 cells/well. The cells were allowed to attach to the wells for 24 hours at 37° C., 5% CO2. The culture medium was removed and 100 μL culture medium containing compounds (immediately diluted from fresh prepared stock solution of 10 mM) at gradient concentrations (0 μM as the control) was placed into each well. After culturing at 37° C., 5% CO2 for 48 hours, each well was added by 10 μL of 5 mg/mL MTT (3-(4,5-dimethylthiazoL-2-yl)-2,5-diphenyltetrazolium bromide), and the plated cells were incubated in the dark for 4 hours. 100 μL 10% SDS with 0.01M HCl was added to each well to stop the reduction reaction and to dissolve the purple. After overnight incubation of the cells at 37° C., the OD at 595 nm of the solution was measured in a microplate reader. Data represent the mean±standard deviation of three independent experiments.

phosphatases = test: Phosphatase activity assay of gel, suspension and control medium of HeLa cells; type: cell-based, human; conditions: HeLa cells treated with 560 μM D-2a, after removing the hydrogel
Description: Phosphatase activity was evaluated by the alkaline phosphatase assay using the Abcam Alkaline Phosphatase Assay Kit following the supplied protocol. In brief, 50 μL of 5 mM pNPP solution in assay buffer was mixed with 80 μL of the sample solutions in 96 well plate. The mixed solution was incubated at 25° C., protected from light. 20 μL of stop solution was added to each test and the OD at 405 nm of the solution was measured in a microplate reader.
To verify whether the pericellular hydrogel/nanonets block the entry of secretory proteins/enzymes into the culture medium, the amount of phosphatases in four experimental samples was evaluated: blank medium (Blank), medium incubated with untreated HeLa cells (Control), the pericellular hydrogel from HeLa cells treated with 560 μM D-2a for 12 hours (Gel), and the suspension of the medium of HeLa cells treated with D-2a after removing the hydrogel (Suspension). The amount of phosphatases accumulated in the Gel is about 27 times higher than that found in the Control (FIG. 3B). […] In other words, the pericellular hydrogel/nanonets largely block cellular mass exchange between the cells and their environment.

active PARP = test: Apoptosis pathway assay (ELISA), active PARP; type: cell-based, human; conditions: HeLa cells, 280 μM, at 24 and 32 hours of incubation
Description: The apoptosis pathway was evaluated using the PathScan® Apoptosis Multi-Target Sandwich ELISA Kit (Cell Signaling Technology) following the supplied protocol. Cells in exponential growth phase were seeded in a 6 cm Petri dish at a concentration of 10×10^5 cells/dish (5 dishes). Cells were allowed to attach to the wells for 24 hours at 37° C., 5% CO2. The culture medium was removed and 5 mL medium containing 280 μM D-2a (immediately diluted from fresh prepared stock solution of 11.2 mM) was placed into each dish. At 0, 6, 12, 24, or 32 hours, the medium was removed and cells were washed three times with cold PBS buffer. 0.9 mL lysis buffer was used to lyse cells in each dish, and 0.9 mL of diluents buffer was used to dilute each of the cell lysate. The lysate was incubated in the provided 96 well plate at 4° C. for 24 hours.
ELISA was used to quantify the amount of several key apoptosis signal molecules over time in the HeLa cells incubated with 280 μM D-2a (FIG. 3E).

Ect1/E6E7 cells = test: Confocal microscopy, Congo red/DAPI staining, Ect1/E6E7; type: cell-based, human; conditions: 560 μM, 12 hours
Description: as §1, with “The culture medium was removed, and replaced with culture medium containing D-2a at 280 μM.” left out
Ect1/E6E7 cells (immortalized normal human cervical epithelial cells, which have same tissue and organ origins as HeLa cells) were treated with the same procedure as described for HeLa cells above. […] The difference of hydrogel/nanonets formation by D-2a conversion to D-2b on HeLa cells and Ect1/E6E7 cells agrees with the notion that HeLa cells have higher levels of phosphatase activity than Ect1/E6E7 cells (FIG. 9).

[2] = system: Alkaline-phosphatase (“ALP”); conditions: D-2a 0.20 wt %/2.77 mM
Source text: […] Scale bar=100 nm.
Napthalene capped tripeptide precursor molecule D-2a and hydrogelator molecule D-2b, synthesized according to Yang et al. (Small 3:558-562 (2007), which is hereby incorporated by reference in its entirety), are comprised of the tripeptide D-Phe-D-Phe-D-Tyr (FIG. 1B). The D-Tyr of D-2a is phosphorylated (FIG. 1B).

HeLa cells = test: Cell migration (wound healing) assay; type: cell-based, human; conditions: 18 hours
Description: Cell migration was evaluated using the wound healing assay with the CytoSelect™ Wound Healing Assay Kit (Cell Biolabs, Inc). Wound healing inserts with width at 0.9 mm were placed into 24-well plates. 0.8 mL of HeLa cells at 2×10^5 cells/mL were added to either side of the insert and incubated overnight to form a confluent layer. Inserts were then carefully removed to expose the gap. After removing the culture medium, new medium containing the molecules was added to cells. The cells were next incubated at 37° C., 5% CO2 for 18 hours. Images of gaps before and after the addition of the molecules were captured using a microscope at a magnification of ×40. Cell migration was quantified by measuring the change in gap distance.

Compound: O=C(Cc1ccc2ccccc2c1)N[C@H](Cc1ccccc1)C(=O)N[C@H](Cc1ccccc1)C(=O)N[C@H](Cc1ccc(OP(=O)(O)O)cc1)C(=O)O [D-2a, Nap-D-Phe-D-Phe-D-Tyr(PO3H2)]
- Pericellular hydrogel/nanonets formation (MES-SA/dx5 cells): forms pericellular hydrogel/nanonets
- viability at 48 h, 280 µM [1]: ~10%
- Amount of phosphatases in the Suspension relative to the Control (phosphatases): significantly lower than that in the Control
- Amount of active PARP (active PARP): increase significantly
- Congo red fluorescence on cells (Ect1/E6E7 cells): hardly display any red fluorescence
- DAPI entry into cells (Ect1/E6E7 cells): DAPI stains the nuclei
- Hydrogel formation after ALP-catalyzed dephosphorylation [2]: self assembles to form the nanofibrils of a hydrogel
- Cell migration (gap) (HeLa cells; 280 μM): gaps larger than those of untreated cells
- Cell migration (gap) (HeLa cells; 560 μM): gaps larger than those of untreated cells
